Test results from ChEMBL document CHEMBL3808348, “Rational Design, Synthesis, and Biological Evaluation of 7-Azaindole Derivatives as Potent Focused Multi-Targeted Kinase Inhibitors” (J Med Chem, 2016).

How the values were obtained:
A549 = assay: Antiproliferative activity against human A549 cells after 72 hrs by MTT assay; type: functional, cell-based; conditions: A549, 72 h
HT-29 = assay: Antiproliferative activity against human HT-29 cells after 72 hrs by MTT assay; type: functional, cell-based; conditions: HT-29, 72 h
[1] = Antiproliferative activity against human PC3 cells after 72 hrs by MTT assay; type: functional, cell-based; conditions: PC-3, 72 h
[2] = Antiproliferative activity against human Caki2 cells after 72 hrs by MTT assay; type: functional, cell-based; conditions: CAKI-2, 72 h
MDA-MB-231 = assay: Antiproliferative activity against human MDA-MB-231 cells after 72 hrs by MTT assay; type: functional, cell-based; conditions: MDA-MB-231, 72 h
NCI-H1975 = assay: Antiproliferative activity against human NCI-H1975 cells harboring EGFR L858R/T790M double mutant after 72 hrs by MTT assay; type: functional, cell-based; conditions: NCI-H1975, 72 h
[3] = Antiproliferative activity against human BxPC3 cells after 72 hrs by MTT assay; type: functional, cell-based; conditions: BXPC-3, 72 h
PBMC = assay: Hematotoxicity in human PHA/IL2-stimulated PBMC; type: cell-based
[4] = biological target: Fibroblast growth factor receptor 2 (Homo sapiens) (UniProt P21802); assay: Inhibition of His-tagged human recombinant FGFR2 (403 to 822 residues) expressed in baculovirus using Fluorescein-Poly GT as substrate at 100 nM
Chain of Fibroblast growth factor receptor 2 (Homo sapiens) (P21802 22-821 limits assumed): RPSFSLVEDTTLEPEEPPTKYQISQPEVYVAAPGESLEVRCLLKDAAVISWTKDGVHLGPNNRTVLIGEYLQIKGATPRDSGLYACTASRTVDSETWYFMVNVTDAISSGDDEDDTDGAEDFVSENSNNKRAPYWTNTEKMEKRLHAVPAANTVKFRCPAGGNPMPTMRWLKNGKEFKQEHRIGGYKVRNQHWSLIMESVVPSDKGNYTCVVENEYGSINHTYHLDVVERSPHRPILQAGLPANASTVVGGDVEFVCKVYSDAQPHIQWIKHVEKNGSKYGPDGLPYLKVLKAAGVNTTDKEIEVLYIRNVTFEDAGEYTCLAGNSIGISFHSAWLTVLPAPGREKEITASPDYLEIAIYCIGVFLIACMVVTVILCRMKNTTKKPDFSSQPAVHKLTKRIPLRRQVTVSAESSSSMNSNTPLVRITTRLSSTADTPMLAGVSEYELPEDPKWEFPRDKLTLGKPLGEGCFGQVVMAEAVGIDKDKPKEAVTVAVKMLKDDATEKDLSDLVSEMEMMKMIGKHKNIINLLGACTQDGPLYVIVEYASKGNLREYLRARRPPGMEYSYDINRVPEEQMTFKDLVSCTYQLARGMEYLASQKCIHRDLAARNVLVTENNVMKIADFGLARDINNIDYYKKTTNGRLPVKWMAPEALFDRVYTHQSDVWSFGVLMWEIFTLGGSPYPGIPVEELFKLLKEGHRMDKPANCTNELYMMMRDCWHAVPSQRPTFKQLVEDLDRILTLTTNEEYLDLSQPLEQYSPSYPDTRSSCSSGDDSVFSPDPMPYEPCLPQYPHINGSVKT

[5] = biological target: Serine/threonine-protein kinase B-raf (Homo sapiens) (UniProt P15056); assay: Inhibition of full length GST-tagged human recombinant BRAF expressed in baculovirus using Fluorescein-MAP2K1 as substrate at 100 nM
[6] = biological target: Epidermal growth factor receptor (Homo sapiens, UniProt P00533); assay: Inhibition of GST-tagged human recombinant EGFR (668 to1210 residues) expressed in baculovirus using Fluorescein-Poly GT as substrate at 100 nM
Chain of Epidermal growth factor receptor (P00533 whole entry, the tested form may be a part): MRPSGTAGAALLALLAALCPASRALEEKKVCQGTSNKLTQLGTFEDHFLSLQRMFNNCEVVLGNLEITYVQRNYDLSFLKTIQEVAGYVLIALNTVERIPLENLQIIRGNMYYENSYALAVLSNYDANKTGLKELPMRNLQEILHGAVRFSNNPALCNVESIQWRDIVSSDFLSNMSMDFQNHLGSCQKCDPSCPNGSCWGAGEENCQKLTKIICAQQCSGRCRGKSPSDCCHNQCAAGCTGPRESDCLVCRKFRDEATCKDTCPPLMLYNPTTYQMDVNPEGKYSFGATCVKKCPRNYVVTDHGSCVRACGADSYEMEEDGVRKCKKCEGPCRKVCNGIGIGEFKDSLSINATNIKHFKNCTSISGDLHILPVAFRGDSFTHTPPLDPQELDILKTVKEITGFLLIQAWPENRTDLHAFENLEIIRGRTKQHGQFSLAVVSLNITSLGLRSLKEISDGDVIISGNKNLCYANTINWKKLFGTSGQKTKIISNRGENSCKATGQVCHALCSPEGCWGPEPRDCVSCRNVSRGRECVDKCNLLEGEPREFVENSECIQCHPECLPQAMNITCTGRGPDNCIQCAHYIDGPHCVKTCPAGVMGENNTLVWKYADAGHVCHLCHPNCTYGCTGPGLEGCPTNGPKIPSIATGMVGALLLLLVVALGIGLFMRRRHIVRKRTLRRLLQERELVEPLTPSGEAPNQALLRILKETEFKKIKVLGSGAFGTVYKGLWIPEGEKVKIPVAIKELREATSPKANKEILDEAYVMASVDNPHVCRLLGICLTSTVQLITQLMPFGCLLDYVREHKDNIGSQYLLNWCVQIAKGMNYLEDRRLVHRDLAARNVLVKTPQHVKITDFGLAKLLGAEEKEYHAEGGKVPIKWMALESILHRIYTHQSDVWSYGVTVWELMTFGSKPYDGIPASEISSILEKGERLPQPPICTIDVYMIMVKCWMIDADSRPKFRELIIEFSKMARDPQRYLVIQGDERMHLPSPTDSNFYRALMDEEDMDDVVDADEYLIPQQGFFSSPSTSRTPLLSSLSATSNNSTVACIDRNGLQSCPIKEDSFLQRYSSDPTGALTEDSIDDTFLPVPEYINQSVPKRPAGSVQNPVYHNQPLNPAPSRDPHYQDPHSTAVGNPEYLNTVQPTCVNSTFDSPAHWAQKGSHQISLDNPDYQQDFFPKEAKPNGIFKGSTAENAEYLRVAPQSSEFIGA

[7] = biological target: Platelet-derived growth factor receptor alpha (Homo sapiens, UniProt P16234); assay: Inhibition of full length GST-tagged human recombinant PDGFRalpha expressed in baculovirus using Fluorescein-Poly GT as substrate at 100 nM
Chain of Platelet-derived growth factor receptor alpha (P16234 whole entry): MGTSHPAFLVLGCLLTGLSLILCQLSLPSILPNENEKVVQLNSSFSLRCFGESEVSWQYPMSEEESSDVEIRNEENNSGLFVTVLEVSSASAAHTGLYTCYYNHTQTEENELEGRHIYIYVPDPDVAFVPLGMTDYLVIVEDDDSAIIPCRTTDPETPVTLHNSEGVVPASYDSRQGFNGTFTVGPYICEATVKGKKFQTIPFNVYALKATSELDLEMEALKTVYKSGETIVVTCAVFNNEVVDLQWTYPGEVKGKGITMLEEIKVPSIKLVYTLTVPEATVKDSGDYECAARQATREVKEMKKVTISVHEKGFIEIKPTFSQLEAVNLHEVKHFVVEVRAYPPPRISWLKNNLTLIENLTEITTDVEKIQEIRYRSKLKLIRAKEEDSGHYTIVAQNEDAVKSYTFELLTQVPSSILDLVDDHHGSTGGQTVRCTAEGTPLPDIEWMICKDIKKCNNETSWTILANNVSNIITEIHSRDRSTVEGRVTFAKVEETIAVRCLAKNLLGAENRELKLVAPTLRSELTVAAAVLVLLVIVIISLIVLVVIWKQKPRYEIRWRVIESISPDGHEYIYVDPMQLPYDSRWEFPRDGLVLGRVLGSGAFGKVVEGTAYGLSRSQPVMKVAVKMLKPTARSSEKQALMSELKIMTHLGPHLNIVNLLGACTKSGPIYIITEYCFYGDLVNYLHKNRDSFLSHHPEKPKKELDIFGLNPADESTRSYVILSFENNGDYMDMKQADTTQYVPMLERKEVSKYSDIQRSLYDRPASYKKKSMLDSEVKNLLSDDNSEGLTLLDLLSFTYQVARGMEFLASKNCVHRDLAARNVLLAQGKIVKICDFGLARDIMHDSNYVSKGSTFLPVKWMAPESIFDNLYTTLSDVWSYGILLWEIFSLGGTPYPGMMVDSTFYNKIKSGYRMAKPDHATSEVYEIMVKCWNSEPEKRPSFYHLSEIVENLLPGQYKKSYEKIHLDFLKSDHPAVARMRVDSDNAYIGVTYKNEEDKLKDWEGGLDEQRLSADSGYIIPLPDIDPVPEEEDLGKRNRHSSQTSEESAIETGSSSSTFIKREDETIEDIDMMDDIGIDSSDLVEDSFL

[8] = biological target: Proto-oncogene tyrosine-protein kinase Src (Homo sapiens, UniProt P12931); assay: Inhibition of full length His-tagged human recombinant cSRC expressed in baculovirus using Fluorescein-Poly GT as substrate at 100 nM
Chain of Proto-oncogene tyrosine-protein kinase Src (P12931 2-536 limits assumed): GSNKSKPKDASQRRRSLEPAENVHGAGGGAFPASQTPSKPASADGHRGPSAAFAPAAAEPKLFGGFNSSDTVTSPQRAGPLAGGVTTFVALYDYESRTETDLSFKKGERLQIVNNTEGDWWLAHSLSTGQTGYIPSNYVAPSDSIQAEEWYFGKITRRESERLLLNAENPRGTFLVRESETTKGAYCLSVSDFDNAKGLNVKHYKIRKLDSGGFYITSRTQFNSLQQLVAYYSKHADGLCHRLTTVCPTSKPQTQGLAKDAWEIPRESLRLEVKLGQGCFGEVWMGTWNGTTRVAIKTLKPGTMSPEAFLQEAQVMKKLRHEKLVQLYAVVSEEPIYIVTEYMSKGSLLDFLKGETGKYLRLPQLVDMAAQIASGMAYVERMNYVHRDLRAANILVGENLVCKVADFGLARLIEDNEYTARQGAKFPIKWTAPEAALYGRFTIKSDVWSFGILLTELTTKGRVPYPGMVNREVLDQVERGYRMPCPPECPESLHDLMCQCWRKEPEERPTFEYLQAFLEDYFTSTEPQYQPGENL

[9] = biological target: Vascular endothelial growth factor receptor 2 (Homo sapiens) (UniProt P35968); assay: Inhibition of full length His-tagged human recombinant VEGFR2 expressed in baculovirus using Fluorescein-Poly GT as substrate at 100 nM
Chain of Vascular endothelial growth factor receptor 2 (Homo sapiens) (P35968 whole entry): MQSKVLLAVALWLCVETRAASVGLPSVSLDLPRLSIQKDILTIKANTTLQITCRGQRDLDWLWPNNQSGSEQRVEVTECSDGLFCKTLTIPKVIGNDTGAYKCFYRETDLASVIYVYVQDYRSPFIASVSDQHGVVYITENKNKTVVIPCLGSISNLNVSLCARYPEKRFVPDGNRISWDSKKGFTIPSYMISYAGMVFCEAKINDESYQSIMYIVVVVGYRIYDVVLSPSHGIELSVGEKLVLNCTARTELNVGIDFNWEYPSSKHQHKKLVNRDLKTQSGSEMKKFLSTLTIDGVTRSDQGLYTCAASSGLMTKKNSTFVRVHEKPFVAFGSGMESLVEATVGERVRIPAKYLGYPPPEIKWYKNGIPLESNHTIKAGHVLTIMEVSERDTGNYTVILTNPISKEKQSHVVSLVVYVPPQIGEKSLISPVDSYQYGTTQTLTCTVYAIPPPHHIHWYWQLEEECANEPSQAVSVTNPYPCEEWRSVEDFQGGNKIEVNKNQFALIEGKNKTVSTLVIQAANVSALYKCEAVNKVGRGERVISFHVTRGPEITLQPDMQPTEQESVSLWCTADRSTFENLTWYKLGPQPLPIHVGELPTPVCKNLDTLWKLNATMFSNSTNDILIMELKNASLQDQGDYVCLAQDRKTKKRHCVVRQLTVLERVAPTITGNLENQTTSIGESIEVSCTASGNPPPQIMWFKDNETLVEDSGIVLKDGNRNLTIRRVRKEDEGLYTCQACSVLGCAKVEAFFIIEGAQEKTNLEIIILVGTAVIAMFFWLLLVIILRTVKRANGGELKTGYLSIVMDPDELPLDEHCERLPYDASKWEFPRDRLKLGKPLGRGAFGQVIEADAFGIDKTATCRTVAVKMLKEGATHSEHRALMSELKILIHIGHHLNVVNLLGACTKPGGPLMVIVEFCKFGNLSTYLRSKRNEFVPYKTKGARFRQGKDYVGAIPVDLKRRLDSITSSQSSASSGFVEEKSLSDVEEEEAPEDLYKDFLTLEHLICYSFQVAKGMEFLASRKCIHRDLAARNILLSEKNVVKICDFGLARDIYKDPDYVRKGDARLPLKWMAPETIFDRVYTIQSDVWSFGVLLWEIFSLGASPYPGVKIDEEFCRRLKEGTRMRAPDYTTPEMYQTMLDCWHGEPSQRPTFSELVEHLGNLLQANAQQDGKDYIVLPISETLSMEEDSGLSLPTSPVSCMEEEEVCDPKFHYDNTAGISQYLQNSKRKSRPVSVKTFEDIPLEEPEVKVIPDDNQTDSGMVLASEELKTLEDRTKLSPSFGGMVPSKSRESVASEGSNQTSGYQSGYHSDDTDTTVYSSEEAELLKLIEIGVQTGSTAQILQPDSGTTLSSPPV

HepG2 = assay: Antiproliferative activity against human HepG2 cells after 72 hrs by MTT assay; type: functional, cell-based; conditions: HepG2, 72 h
HUVEC = assay: Antiangiogenic activity in HUVEC after 72 hrs by MTT assay; type: functional, cell-based; conditions: Homo sapiens
[10] = Antiangiogenic activity in HRMEC after 72 hrs by MTT assay; type: functional, Homo sapiens

| Compound | EC50 (A549) [nM] | EC50 (HT-29) [nM] | EC50 (MDA-MB-231) [nM] | EC50 (NCI-H1975) [nM] | inhibition [4] [%] | inhibition [5] [%] | inhibition [6] [%] | inhibition [7] [%] | inhibition [8] [%] | inhibition [9] [%] | EC50 (HepG2) [nM] | EC50 [1] [nM] | EC50 [2] [nM] | EC50 [3] [nM] | EC50 (PBMC) [nM] | EC50 (HUVEC) [nM] | EC50 [10] [nM] |
| --- | --- | --- | --- | --- | --- | --- | --- | --- | --- | --- | --- | --- | --- | --- | --- | --- | --- |
| CNC(=O)c1cc(Oc2ccc(NC(=O)Nc3ccc(Cl)c(C(F)(F)F)c3)c(F)c2)ccn1 [REGORAFENIB] | > 1000 | > 1000 | – | – | – | – | – | – | – | – | – | – | – | – | – | – | – |
| CC(=O)c1cc2cc(NCc3cc(NC(=O)c4ccc(CN5CCC(N(C)C)C5)c(C(F)(F)F)c4)ccc3C)cnc2[nH]1 (centres undefined) | 204 | 150 | – | – | 58 | 56 | 94 | 73 | 91 | 71 | 275 | – | – | – | – | 97 | 179 |
| CCN(CC)CCNC(=O)c1c(C)[nH]c(/C=C2\C(=O)Nc3ccc(F)cc32)c1C [SUNITINIB] | – | – | > 1000 | > 1000 | – | – | – | – | – | – | – | > 1000 | > 1000 | > 1000 | – | – | – |
| CC(=O)c1cc2cc(CCc3cc(NC(=O)c4ccc(CN5CCC(N(C)C)C5)c(C(F)(F)F)c4)ccc3C)cnc2[nH]1 (centres undefined) | 293 | 303 | – | – | 81 | 60 | 83 | 89 | 97 | 99 | 248 | – | – | – | – | 163 | 304 |
| COC(=O)c1cc2cc(CCc3cc(NC(=O)c4ccc(CN5CCC(N(C)C)C5)c(C(F)(F)F)c4)ccc3C)cnc2[nH]1 (centres undefined) | – | – | – | – | 101 | 64 | 97 | 105 | 101 | 102 | > 1000 | – | – | – | – | 171 | – |
| CNC(=O)c1cc2cc(NCc3cc(NC(=O)c4ccc(CN5CCC(N(C)C)C5)c(C(F)(F)F)c4)ccc3C)cnc2[nH]1 (centres undefined) | 495 | 227 | – | – | 98 | 93 | 101 | 94 | 99 | 87 | 179 | – | – | – | – | 83 | 81 |
| CNC(=O)c1cc(Oc2ccc(NC(=O)Nc3ccc(Cl)c(C(F)(F)F)c3)cc2)ccn1 [SORAFENIB] | > 1000 | > 1000 | > 1000 | > 1000 | – | – | – | – | – | – | 302 | – | > 1000 | > 1000 | – | 718 | > 1000 |

Now from value to molecule, other results behind:

| EC50 (A549) [nM] | EC50 (HT-29) [nM] | EC50 (MDA-MB-231) [nM] | EC50 (NCI-H1975) [nM] | inhibition [4] [%] | inhibition [5] [%] | inhibition [6] [%] | inhibition [7] [%] | inhibition [8] [%] | inhibition [9] [%] | EC50 (HepG2) [nM] | Compound | EC50 [1] [nM] | EC50 [2] [nM] | EC50 [3] [nM] | EC50 (PBMC) [nM] | EC50 (HUVEC) [nM] | EC50 [10] [nM] |
| --- | --- | --- | --- | --- | --- | --- | --- | --- | --- | --- | --- | --- | --- | --- | --- | --- | --- |
| – | – | 44 | 173 | – | – | – | – | – | – | – | Cc1nc(Nc2ncc(C(=O)Nc3c(C)cccc3Cl)s2)cc(N2CCN(CCO)CC2)n1 [DASATINIB] | 232 | 55 | 33 | 1600 | – | – |
| – | – | > 1000 | 116 | – | – | – | – | – | – | – | CN(C)C/C=C/C(=O)Nc1cc2c(Nc3ccc(F)c(Cl)c3)ncnc2cc1O[C@H]1CCOC1 [AFATINIB] | – | – | > 1000 | – | – | – |
| – | – | – | – | -6 | 85 | 49 | 82 | 51 | 46 | > 1000 | COC(=O)c1cc2cc(NCc3cc(NC(=O)c4ccnc(C)c4)ccc3C)cnc2[nH]1 | – | – | – | – | 986 | – |
| – | – | – | – | 13 | 73 | 78 | 93 | 101 | 73 | 963 | COC(=O)c1cc2cc(NCc3cc(NC(=O)c4cncc(C(F)(F)F)c4)ccc3C)cnc2[nH]1 | – | – | – | – | 390 | – |
| – | – | – | – | 18 | 67 | 86 | 86 | 77 | 92 | > 1000 | CC(=O)c1cc2cc(CCc3cc(NC(=O)c4ccc(CN5CCN(C)CC5)cc4)ccc3C)cnc2[nH]1 | – | – | – | – | 118 | – |
| > 1000 | > 1000 | > 1000 | > 1000 | – | – | – | – | – | – | – | C#Cc1cccc(Nc2ncnc3cc(OCCOC)c(OCCOC)cc23)c1 [ERLOTINIB] | > 1000 | > 1000 | > 1000 | – | – | > 1000 |
| – | – | – | – | 69 | 15 | 93 | 96 | 87 | 86 | > 1000 | COC(=O)c1cc2cc(COc3cc(NC(=O)c4ccc(CN5CCC(N(C)C)C5)c(C(F)(F)F)c4)ccc3C)cnc2[nH]1 (centres undefined) | – | – | – | – | 426 | – |
| – | – | – | – | -4 | 65 | 45 | 87 | 59 | 59 | > 1000 | COC(=O)c1cc2cc(NCc3cc(NC(=O)c4ccc5[nH]ccc5c4)ccc3C)cnc2[nH]1 | – | – | – | – | 199 | – |
